Results reported in US6025365A, “Chelerythrine and radiation combined tumor therapy” (Arch Development Corp., priority 1997, dated 2000).

Legend:
[1] = tested on: bcl-x WEHI-231, MG and WEHI-231 OE (JM) cells; experiment: Effect of protease inhibitors on chelerythrine induced apoptosis in apoptosis-resistant cell lines; assay type: cell-based; conditions: ZVAD 20 μM, even at doses >15 μM chelerythrine
Procedure: Using the procedures already described (Chmura, 1996; Chmura et al., 1996a; Chmura et al., 1996b), three different apoptosis-resistant cell lines were examined for their susceptibility to apoptosis induced by chelerythrine. The three cell lines used were bcl-x WEHI-231, which represents WEHI-231 cells that have been transfected with bcl-x and are highly resistant to radiation induce apoptosis, MG cells and the WEHI-231 OE (JM) cells previously described.
All three cell lines were treated with chelerythrine and x-irradiation as previously described (Chmura et al., 1996a; Chmura et al., 1996b) with the following modifications. Cells were pre-exposed to YVAD-cmk (100 μM), a protease inhibitor of the interleukin 1-b converting enzyme (ICE) subfamily or to ZVAD (20 μM), which inhibits the cpp32β family of proteases, for 30 minutes before being subjected to chelerythrine.

SQ20-B cells [2] = experiment: Apoptosis in SQ20-B (propidium iodide FACS, DAPI staining, DNA laddering); assay type: cell-based, human
Procedure: FIGS. 3A-3E. […] M1 defines the % of apoptotic cells as defined by (a) propidium iodide uptake of 1 log or more fluorescence and (b) a decrease in cell size of 50% or more. FL3-Height indicated the uptake of propidium by the cell. In FIG. 3A, M1=5%; FIG. 3B, M1=22%; FIG. 3C, M1=73%; FIG. 3D, M1=16%; FIG. 3E, M1=24%.
Cells undergoing apoptosis also shrink in size.
Cells, 5×10^5, were centrifuged at 1000 rpm and resuspended in approximately 100 μl cell culture media. The cell suspension was then mixed with 100 μl of DAPI (4',6-iamidino-2-phenylindole, Sigma D9542, 1 μg/ml in PBT (PBS+1% Triton X-100)). One drop of this mixture was placed on a microslide with a coverslip. The cells were viewed by fluorescence microscopy using an Olympus BX-40 microscope with a 100 Watt Mercury lamp, a 16 or 40 X Fluorite objective, N.A. 0.75, (Leco #1-UB527) and a UV filter cube (ex 330-385 nm, em 420 nm, wide band pass, Leco #U-M536). Images were photographed using an Optronics cooled low-light video camera (Leco #DEI-470TB) to which was attached a 2X coupler (Leco #HR200-CMT). The image was saved to a digital file at 72 dpi.
DNA degradation was assessed as previously described (Gottschalk et al., 1993; 1994). Briefly, following treatment in 100 mm plates or 24 well plates, cells were collected and lysed in 0.5 ml lysis buffer (0.6% SDS+10 mM EDTA, pH 7.0). […]

WEHI-231 cells = experiment: Reactive oxygen species by dichlorodihydrofluorescein and FACS; assay type: cell-based, murine; conditions: 30 μM ceramide or 10 μM chelerythrine, 15 minutes; anti-IgM 2 hours
Procedure: FIGS. 8A-8C. Exogenous ceramide and PKC inhibition induce oxidative changes in WEHI-231 cells. WEHI-231 cells (1×10^6) were treated with anti-IgM antibodies for 2 hours (FIG. 8A), 30 μM exogenous ceramide for 15 minutes (FIG. 8B) or 10 μM chelerythrine for 15 minutes (FIG. 8C). The reactive oxygen species in the cells was then measured using dichlorodihydrofluorescein (DCHF-DA) and quantitated using FACS analysis. Histogram analysis of fluorescence is plotted as LOG function.
The mechanisms by which ceramide may mediate cell death is yet unknown. […] Since changes in oxidative status induced a wide range of cellular responses including growth and apoptosis in WEHI-231 and other lymphocytes, the inhibition of PKC and a resulting accumulation of ceramide were studied for their affect on the level of reactive oxygen species within the cell using the dye dichlorodihydrofluorescein and FACS analysis. […] While non-toxic oxidation may promote cell growth, intracellular reduction may lead to the activation of cysteine proteases which are proposed mediators of apoptosis.

SQ20-B cells [3] = experiment: Clonogenic survival / colony formation assay; assay type: cell-based, human; conditions: 20 μM C2-ceramide 30 minutes prior to x-ray
Procedure: FIG. 2. Chelerythrine chloride enhanced IR-mediated cell killing through divisional death. Clonogenic survival was measured following exposure to increasing concentrations of chelerythrine and ionizing radiation. Cells were plated at cell numbers between about 500 cells/plate and about 2000 cells/plate and treated with 0 μM, 0.5 μM, or 1.0 μM chelerythrine chloride for 30 minutes prior to irradiation. After 2 weeks the colonies were scored for survival if they were composed of more than 50 cells. Results represent the mean of three individual experiments with duplicate or triplicate determinants. Error bars represent +/- the standard error of the means (SEM).
FIG. 5C. […] Closed circles represent radiation alone; closed squares represenet addition of 20 μM C2-Ceramide 30 minutes prior to x-ray.
Exponentially growing SQ20B cultures were trypsinized using 0.05% trypsin+0.02% EDTA. Cells (100 to 50,000) were plated in 100 mm tissue culture dishes. Chelerythrine or C2-ceramide was added 4 hours after plating and irradiated for 30 minutes after the addition of chelerythrine or C2-ceramide. The cells were irradiated using a GE Maxitron 250 x-ray generator operating at 250 kV and 26 mA with a dose rate of 114 cGy/min. After 12 days the cells were fixed and stained with crystal violet following standard procedures (Chmura et al., 1996a; 1996b). Colonies of >50 cells were scored as survivors.
Clonogenic survival was measured following increasing concentrations of chelerythrine chloride alone (0.5-1.5 μM), IR alone (1-9 Gy), or the combined treatment of cells with chelerythrine and IR. […] At a concentration of 500 nM, chelerythrine decreased cell survival to about 80% of untreated control cells (about 20% cell death). The combined treatment of cells with 500 nM of chelerythrine 30 minutes prior to treatment with 3 Gy of radiation decreased cell survival to about 30% of untreated cells (about 70% cell death). […] Cell shrinkage and nuclear condensation, characteristic of apoptosis, were not observed at these concentrations of chelerythrine and IR.

WEHI-231 OE cells [4] = experiment: Radiation mediated apoptosis of WEHI-231 OE cells after C2-ceramide pre-treatment; assay type: cell-based, murine; conditions: C2-ceramide 30 minutes prior to 8 Gy, 24 hours
Procedure: FIG. 11A-1, FIG. 11A-2, and FIG. 11A-3. Exogenous ceramide can sensitize WEHI-231 OE cells to radiation mediated apoptosis. C2-ceramide (Cer) was added to 3×10^5 WEHI-231 OE cells 30 minutes prior to treatment with 8 Gy. Apoptosis was quantitated using propidium iodide staining and FACS analysis. Percent apoptotic cells are shown in gate R2 twenty-four hours following irradiation.
(§1) For viability staining, 2.5-3.5×10^5 cells were treated with varying concentrations of C2-ceramide, irradiation, or both.
(§2) In order to address the question of whether the resistance of the OE subline was due, in part, to alterations in ceramide metabolites or targets, three studies were performed. […] Both cell lines were equally susceptible to the effects of sphingosine kinase inhibition and the resulting […] in ceramide. […] Thus the radioresistance can be attributed to the lack of sphingomyelinase activation and the subsequent decreased ceramide production following irradiation.

WEHI-231 JM cells = experiment: Viability by PI staining and FACS, WEHI-231 JM; assay type: cell-based, murine; conditions: 24 hours
Procedure: (§3) FIG. 11B. WEHI-231 JM and OE cells are equally sensitive to inhibition of sphingosine kinase and exogenous ceramide. Cells were treated with increasing concentrations of C2-ceramide or DL-threo-dihydrosphingosine--apotent inhibitor of sphingosine kinase. Viability was assayed using PI staining and FACS analysis 24 hours after treatment.
as §1, §2

WEHI-231 OE cells [5] = experiment: Viability by PI staining and FACS, WEHI-231 OE; assay type: cell-based, murine; conditions: 24 hours
Procedure: as §3, §1, §2

Compound	inhibition of chelerythrine induced apoptosis [1]	apoptosis following combined IR and chelerythrine (2.5 μM), inhibition (SQ20-B cells [2]; zVAD-fmk 20 μM)	chelerythrine induced apoptosis, inhibition (SQ20-B cells [2]; zVAD-fmk with chelerythrine)	reactive oxygen species (ROS) (WEHI-231 cells)	clonogenic survival of irradiated cultures (words) (SQ20-B cells [3]; listed as C2-Ceramide)	clonogenic survival of irradiated cultures (words) (SQ20-B cells [3]; listed as ceramide)	apoptotic response of irradiated cells (WEHI-231 OE cells [4])	IC50 (WEHI-231 JM cells)	IC50 (WEHI-231 OE cells [5])
zVAD-fmk	did block chelerythrine induced apoptosis	inhibited apoptosis	blocked chelerythrine induced apoptosis						
CCCCCCCCCCCCC/C=C/[C@@H](O)[C@H](CO)NC(C)=O [C2-ceramide]				reduced the ROS in the cells	decreased clonogenic survival	enhanced IR induced cell killing	restored the apoptotic response at 24 hours	3000 nM	3000 nM
